Results taken from patent US20020082273A1, “Agents for use in the treatment of alzheimer's disease” (priority 1998, published 2002).

Assay: Cu^2+-induced SDS-resistant polymerization of Aβ peptides, western blot image analysis
Assay type: biochemical, human
Conditions: for conversion of monomer to dimer / conversion of monomer to trimer: Cu^2+ 30 μM
Protocol: Following incubation (37° C.), aliquots of each reaction (2 ng peptide) were collected at 0 d, 1 d, 3 d and 5 d and western blotted using anti-Aβ monoclonal antibody 8E10 (FIG. 9). Migration of the molecular size markers are indicated (kDa). […] It should be noted that other means of visualizing and/or determining the presence or absence of polymerization other than western blot analysis may be used. Such other means include but are not limited to density sedimentation by centrifugation of the samples.
The generation of SDS-resistant Aβ polymers by metal ions was tested by incubating Cu^2+ (30 μM) or Zn^2+ (30 μM) at pH 6.6, 7.4 and 9.0 with Aβ1-40.
(0-30 μM) at pH 7.4 and 6.6 and the samples analyzed by Western blot and the signal quantitated using the Fluoro-S Image Analysis System (Bio-Rad, Hercules, Calif.) as previously described.

For “Aβ1-40: synthetic human Aβ peptide, residues 1-40”, the “conversion of monomer to dimer” value (pH 6.6, 5 d) was 29%, the “conversion of monomer to trimer” value (pH 6.6, 5 d) was 2% and the “conversion of monomer to dimer” value (pH 7.4, 5 d) was 42%. For the same substance, the “conversion of monomer to trimer” value (pH 7.4, 5 d) was 9%, the “peptide converted to SDS-resistant dimer” value (no added metal, pH 6.6, 7.4 or 9.0, 5 d) was “Less than 4%” and the “SDS-resistant polymers: Dimer” value (pH 6.6, [Cu^2+] 0) was 2.1. The “SDS-resistant polymers: Monomer” value (pH 6.6, [Cu^2+] 0) was 97.9, the “SDS-resistant polymers: Pentamer” value (pH 6.6, [Cu^2+] 0) was 0 and the “SDS-resistant polymers: Tetramer” value (pH 6.6, [Cu^2+] 0) was 0. For the same substance, the “SDS-resistant polymers: Trimer” value (pH 6.6, [Cu^2+] 0) was <0.1, the “SDS-resistant polymers: Dimer” value (pH 6.6, [Cu^2+] 0.5) was 2.2 and the “SDS-resistant polymers: Monomer” value (pH 6.6, [Cu^2+] 0.5) was 97.6. The “SDS-resistant polymers: Pentamer” value (pH 6.6, [Cu^2+] 0.5) was 0, the “SDS-resistant polymers: Tetramer” value (pH 6.6, [Cu^2+] 0.5) was 0 and the “SDS-resistant polymers: Trimer” value (pH 6.6, [Cu^2+] 0.5) was 0.2. The “SDS-resistant polymers: Dimer” value (pH 6.6, [Cu^2+] 1) was 7.3, the “SDS-resistant polymers: Monomer” value (pH 6.6, [Cu^2+] 1) was 92.6 and the “SDS-resistant polymers: Pentamer” value (pH 6.6, [Cu^2+] 1) was 0. For the same substance, the “SDS-resistant polymers: Tetramer” value (pH 6.6, [Cu^2+] 1) was 0, the “SDS-resistant polymers: Trimer” value (pH 6.6, [Cu^2+] 1) was 0.1 and the “SDS-resistant polymers: Dimer” value (pH 6.6, [Cu^2+] 5) was 9.8. For the same substance, the “SDS-resistant polymers: Monomer” value (pH 6.6, [Cu^2+] 5) was 90.1, the “SDS-resistant polymers: Pentamer” value (pH 6.6, [Cu^2+] 5) was 0 and the “SDS-resistant polymers: Tetramer” value (pH 6.6, [Cu^2+] 5) was 0. For the same substance, the “SDS-resistant polymers: Trimer” value (pH 6.6, [Cu^2+] 5) was 0.1, the “SDS-resistant polymers: Dimer” value (pH 6.6, [Cu^2+] 10) was 16.1 and the “SDS-resistant polymers: Monomer” value (pH 6.6, [Cu^2+] 10) was 79.4. For the same substance, the “SDS-resistant polymers: Pentamer” value (pH 6.6, [Cu^2+] 10) was 0, the “SDS-resistant polymers: Tetramer” value (pH 6.6, [Cu^2+] 10) was 0 and the “SDS-resistant polymers: Trimer” value (pH 6.6, [Cu^2+] 10) was 4.5. For the same substance, the “SDS-resistant polymers: Dimer” value (pH 6.6, [Cu^2+] 30) was 13.2, the “SDS-resistant polymers: Monomer” value (pH 6.6, [Cu^2+] 30) was 74.5 and the “SDS-resistant polymers: Pentamer” value (pH 6.6, [Cu^2+] 30) was 0. The “SDS-resistant polymers: Tetramer” value (pH 6.6, [Cu^2+] 30) was 0, the “SDS-resistant polymers: Trimer” value (pH 6.6, [Cu^2+] 30) was 12.2 and the increase in dimerization (pH 6.6, [Cu^2+] increased from 0.5 to 1 μM) was “over 3 fold”. The “SDS-resistant polymers: Dimer” value (pH 7.4, [Cu^2+] 0) was 3.2, the “SDS-resistant polymers: Monomer” value (pH 7.4, [Cu^2+] 0) was 96.8 and the “SDS-resistant polymers: Pentamer” value (pH 7.4, [Cu^2+] 0) was 0. The “SDS-resistant polymers: Tetramer” value (pH 7.4, [Cu^2+] 0) was 0, the “SDS-resistant polymers: Trimer” value (pH 7.4, [Cu^2+] 0) was <0.1 and the “SDS-resistant polymers: Dimer” value (pH 7.4, [Cu^2+] 0.5) was 4.9. The “SDS-resistant polymers: Monomer” value (pH 7.4, [Cu^2+] 0.5) was 94.8, the “SDS-resistant polymers: Pentamer” value (pH 7.4, [Cu^2+] 0.5) was 0 and the “SDS-resistant polymers: Tetramer” value (pH 7.4, [Cu^2+] 0.5) was 0. For the same substance, the “SDS-resistant polymers: Trimer” value (pH 7.4, [Cu^2+] 0.5) was 0.3, the “SDS-resistant polymers: Dimer” value (pH 7.4, [Cu^2+] 1) was 5.9 and the “SDS-resistant polymers: Monomer” value (pH 7.4, [Cu^2+] 1) was 93.6. The “SDS-resistant polymers: Pentamer” value (pH 7.4, [Cu^2+] 1) was 0, the “SDS-resistant polymers: Tetramer” value (pH 7.4, [Cu^2+] 1) was 0 and the “SDS-resistant polymers: Trimer” value (pH 7.4, [Cu^2+] 1) was 0.6. The “SDS-resistant polymers: Dimer” value (pH 7.4, [Cu^2+] 5) was 14.2, the “SDS-resistant polymers: Monomer” value (pH 7.4, [Cu^2+] 5) was 84.3 and the “SDS-resistant polymers: Pentamer” value (pH 7.4, [Cu^2+] 5) was 0. For the same substance, the “SDS-resistant polymers: Tetramer” value (pH 7.4, [Cu^2+] 5) was 0, the “SDS-resistant polymers: Trimer” value (pH 7.4, [Cu^2+] 5) was 1.5 and the “SDS-resistant polymers: Dimer” value (pH 7.4, [Cu^2+] 10) was 13.2. For the same substance, the “SDS-resistant polymers: Monomer” value (pH 7.4, [Cu^2+] 10) was 85.2, the “SDS-resistant polymers: Pentamer” value (pH 7.4, [Cu^2+] 10) was 0 and the “SDS-resistant polymers: Tetramer” value (pH 7.4, [Cu^2+] 10) was 0. The “SDS-resistant polymers: Trimer” value (pH 7.4, [Cu^2+] 10) was 1.6, the “SDS-resistant polymers: Dimer” value (pH 7.4, [Cu^2+] 30) was 19.1 and the “SDS-resistant polymers: Monomer” value (pH 7.4, [Cu^2+] 30) was 76.2. The “SDS-resistant polymers: Pentamer” value (pH 7.4, [Cu^2+] 30) was 0, the “SDS-resistant polymers: Tetramer” value (pH 7.4, [Cu^2+] 30) was 0 and the “SDS-resistant polymers: Trimer” value (pH 7.4, [Cu^2+] 30) was 4.7.
